In US7074925B1, “N-substituted derivatives of 5-oxyiminobarbituric acid” (priority 1998, dated 2006):
In brackets after ≈: the same amount, converted by molar mass.

Legend:
[1] = Determination of maximal tolerable dose; type: in vivo; conditions: oral administration, mice, observed 72 hours; 300 was the maximally utilized one
Protocol: Tested substance was introduced perorally (in dose of 300 mg/kg) through a gastric tube or intraperitoneally (in dose of 100 mg/kg) to no-breed white mice with mass 18-20 g (each tested group consisted of 3 males and 3 females). Then the mouse state was observed during 72 hours. Absence of symptoms characteristic of toxic effects, or absence of animal death during the given time allows to make a conclusion that the toxicity of the test substance is low. If acute toxicity effects are observed, the dose is reduced to find maximal tolerable dose.

[2] = tested on: Herpes virus of the type I (HSV-I/Leningrad/248/88); assay: Effect on Herpes virus, cytopathogenic action on Vero cells; type: cell-based, Herpes Simplex virus; conditions: compound 100 μg/ml
[3] = tested on: primary culture of human lymphocytes (IFN-α production); assay: Interferon-inducing activity in primary culture of human lymphocytes; type: cell-based
C.trachomatis D323 = assay: Action on Chlamydia trachomatis in cell culture; type: cell-based; conditions: 100 mg/l
Protocol: The antimicrobial activity of the claimed compounds was studied relative to C.trachomatis […], which is a standard strain from the collection of the chair of microbiology of St. Petersburg State Pavlov Medical University. […] Cell cultures McCoy and L929 obtained from the Institute of Cytology of RAS were used in this work. Cells were grown in flasks made of neutral glass in the medium RPMI-1640 with the addition of 10% of fetal calf serum. The test was performed in glass (non-toxic) flat-bottom flasks with cover glasses. The cells were introduced into the medium in the final concentration of […]. […] Simultaneously, tested compounds in a final concentration of 100 mg/l were added to the cells. The sample was centrifuged at 2400 G during 60 minutes at room temperature and incubated at 37° C. for 2 hours. […] The samples were doubled using the medium without cycloheximide so as to exclude its effect on the investigated compounds. The samples were incubated in a CO2-incubator for 48 hours. […] The effect of the action of substance was determined by analysis of the monolayer state and number of cells with CPI when compared with the control (cell culture infected with C.trachomatis […]); in doing so, the number of unchanged cells, that were counted in 100 visual fields obtained using the special net of the microscope eyepiece, was taken into consideration. […] Control of cell culture: morphology of cells and state of monolayer correspond to the given type of the cells; control of chlamydia growth in the cell culture: presence of CPI in the monolayer; control of action of standard antimicrobial agent: reduction of number of CPI in the monolayer as compared to the previous control; control of toxicity of the claimed compounds: toxicity is absent; control of action of solvents: toxic action on cells is absent.

[4] = tested on: Human's platelet aggregation; assay: Antiaggregational properties, ADP-induced platelet aggregation; type: cell-based; conditions: 100 μg/ml, ADP […], platelet-enriched human plasma
Description: Human's platelet aggregation was investigated in plasma of healthy 50±3 years donors that was enriched by thrombocytes, by means of aggregometer FRM-1. […] Magnitude of a maximum non-reversible platelet aggregation in the control samples (solvent) was adopted as 100%, and that in tested samples was counted as the percentage compared to the control.

[5] = Psychostimulating activity, symptom score; type: in vivo, mice; conditions: tested substances perorally 300 mg/kg, one hour after; maximum 30 points, more than 12 significant
[6] = Analgesic activity, tail withdrawal from radiant heat; type: in vivo, mice
Protocol: The time needed to draw back a tail placed under a directed source of radiant heat was estimated in a group of 3 mice. Prolongation of the response time by more than 50% after intraperitoneal dosing a substance (30 mg/kg) indicated analgesic activity. Morphine sulfate (2 mg/kg) was utilized as a reference agent.

[7] = Antioxidant action, riboflavine chemiluminescence; type: biochemical; conditions: solvent water, phosphate buffer pH 9.1
Description: To assess a general antioxidant activity the method of riboflavine chemiluminescence was used. The test substance was introduced into a system consisted of phosphate buffer (pH 9.1), solution of riboflavine, and solution of bivalent iron sulfate. Chemiluminescence was initiated by 0.1% solution of hydrogen peroxide and registered by means of luminometer. […] Ascorbic acid was used as a reference agent.

With `Cc1ccccc1N1C(=O)C(=NO)C(=O)NC1=S` [XLII] the “Maximal tolerable dose, concentration of test substances” value [1] was 300 mg/kg, the “Quantity of the unchanged cells (number of cells in 100 visual fields)” value ([2]; Vero cells, 36 hours, cell control 10000) was 5000 and the “percentage of protection of cells from virus” value ([2]; compared to the control of cell culture) was “(50%)”. The “Content of IFN in induction mixture after 24-hour incubation” value (“Content of IFN in induction mixture” below) ([3]; substance 1 mg/l) was 28.0 ± 1.5 IU/3 × 10^4 lymph./ml, the “Content of IFN in induction mixture” value ([3]; substance 10 mg/l) was 45 ± 1.2 IU/3 × 10^4 lymph./ml and the “Content of IFN in induction mixture” value ([3]; substance 100 mg/l) was 97.5 ± 1.8 IU/3 × 10^4 lymph./ml. The “percentage of cell protection from infection” value (C.trachomatis D323) was “(60%)”, the “Number of unchanged cells” value (C.trachomatis D323; 48 hours, counted in 100 visual fields, cell control 8.000, infected cells 6.000) was 7.200 and the “% of inhibition of platelet aggregation” value [4] was 35.8 ± 3.2%. For the same compound, the “Number of points (psychostimulation)” value [5] was 15, the “Latent period of response, before dosing” value ([6]; before intraperitoneal 30 mg/kg) was 7.8 and the “Latent period of response, 30 minutes after dosing” value ([6]; intraperitoneal 30 mg/kg) was 11.3. The “IC50, suppressing chemiluminescence by 50%” value [7] was 9.99 µg/mL (≈ 37.9 µM).
